The assay deals with T1, recombinant human GR (Homo sapiens, UniProt P04150).
T1 construct: purchased Panvera/Invitrogen P2812 (kit P2893)
T1 sequence (P04150 1-777): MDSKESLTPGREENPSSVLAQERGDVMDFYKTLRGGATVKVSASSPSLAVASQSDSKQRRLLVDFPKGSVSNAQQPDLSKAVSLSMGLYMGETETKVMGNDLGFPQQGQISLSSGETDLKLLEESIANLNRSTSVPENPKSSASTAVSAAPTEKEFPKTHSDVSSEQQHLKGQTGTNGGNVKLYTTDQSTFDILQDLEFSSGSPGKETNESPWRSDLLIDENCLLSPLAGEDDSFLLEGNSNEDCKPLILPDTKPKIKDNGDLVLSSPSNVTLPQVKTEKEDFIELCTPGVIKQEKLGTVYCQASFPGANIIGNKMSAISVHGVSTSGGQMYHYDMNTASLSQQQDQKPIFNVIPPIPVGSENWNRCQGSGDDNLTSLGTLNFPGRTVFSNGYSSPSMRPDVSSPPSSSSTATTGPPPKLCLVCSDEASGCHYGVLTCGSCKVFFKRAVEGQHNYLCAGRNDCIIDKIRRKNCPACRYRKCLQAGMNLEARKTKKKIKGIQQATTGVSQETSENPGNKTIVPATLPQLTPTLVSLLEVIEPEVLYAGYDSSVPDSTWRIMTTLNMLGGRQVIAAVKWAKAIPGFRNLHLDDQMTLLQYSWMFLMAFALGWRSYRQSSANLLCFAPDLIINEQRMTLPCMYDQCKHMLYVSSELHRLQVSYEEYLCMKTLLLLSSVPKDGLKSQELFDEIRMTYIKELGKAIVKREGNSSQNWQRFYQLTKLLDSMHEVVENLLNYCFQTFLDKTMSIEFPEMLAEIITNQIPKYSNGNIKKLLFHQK
Put plainly: Human Glucocorticoid Receptor (GR) Assay, fluorescence polarization. To be noted: GS Red tracer, 2 hours at room temperature, 100% control 10 μM Dexamethasone, read-out: Inhibition of GR binding, IC50. The method, then:
Human Glucocorticoid Receptor (GR) Assay The assay is based on a commercial kit from Panvera/Invitrogen (Part number P2893). The assay technology is fluorescence polarization. The kit utilises recombinant human GR (Panvera, Part number P2812), a Fluoromone™ labelled tracer (GS Red, Panvera, Part number P2894) and a Stabilizing Peptide 10× (Panvera, Part number P2815). The GR and Stabilizing Peptide reagents are stored at −70° C. while the GS Red is stored at −20° C. Also included in the kit are 1M DTT (Panvera, Part number P2325, stored at −20° C.) and GR Screening buffer 10× (Panvera, Part number P2814, stored at −70° C. initially but once thawed stored at room temperature). Avoid repeated freeze/thaws for all reagents. The GR Screening buffer 10× comprises 100 mM potassium phosphate, 200 mM sodium molybdate, 1 mM EDTA and 20% DMSO. Test compounds (1 μL) and controls (1 μL) in 100% DMSO were added to black polystyrene 384-well plates (Greiner low volume black flat-bottom, part number 784076). 0% control was 100% DMSO and 100% control was 10 μM Dexamethasone. Background solution (8 μL; assay buffer 10×, Stabilizing Peptide, DTT and ice cold MQ water) was added to the background wells. GS Red solution (7 μL; assay buffer 10×, Stabilizing Peptide, DTT, GS Red and ice cold water) was added to all wells except background wells. GR solution (7 μL; assay buffer 10×, Stabilizing Peptide, DTT, GR and ice cold water) was added to all wells. The plate was sealed and incubated in a dark at room temperature for 2 hours. The plate was read in an Analyst plate reader (LJL Biosystems/Molecular Devices Corporation) or other similar plate reader capable of recording fluorescence polarization (excitation wavelength 530 nm, emission wavelength 590 nm and a dichroic mirror at 561 nm).

Structures are written as SMILES.

Data on five compounds can be found in US20100256105A1, “NOVEL COMPOUNDS” (AstraZeneca R&D, priority 2009, published 2010).

Take `CC1=C[C@@H]2[C@H]([C@@H](O)C[C@@]3(C)[C@H]2CC[C@]3(OC(=O)c2cocn2)C(=O)SCF)[C@@]2(C)Cc3cnn(-c4ccc(F)nc4)c3C=C12` [Example 14, (1R,3aS,3bS,10aR,10bS,11S,12aS)-1-{[(fluoromethyl)sulfanyl]carbonyl}-7-(6-fluoropyridin-3-yl)-11-hydroxy-5,10a,12a-trimethyl-1,2,3,3a,3b,7,10,10a,10b,11,12,12a-dodecahydrocyclopenta[5,6]naphtho [1,2-f]indazol-1-yl 1,3-oxazole-4-carboxylate]: the IC50 came to 2.9 nM.

Turning to `CC1=C[C@@H]2[C@H]([C@@H](O)C[C@@]3(C)[C@H]2CC[C@]3(OC(=O)c2cocn2)C(=O)SCC#N)[C@@]2(C)Cc3cnn(-c4ccc(F)nc4)c3C=C12` [Example 15, (1R,3aS,3bS,10aR,10bS,11S,12aS)-1-{[cyanomethyl)sulfanyl]carbonyl}-7-(6-fluoropyridin-3-yl)-11-hydroxy-5,10a,12a-trimethyl-1,2,3,3a,3b,7,10,10a,10b,11,12,12a-dodecahydrocyclopenta[5,6]naphtho [1,2-f]indazol-1-yl 1,3-oxazole-4-carboxylate], the IC50 worked out at 3.7 nM.

Turning to `COCC(=O)O[C@]1(C(=O)SCF)CC[C@H]2[C@@H]3C=C(C)C4=Cc5c(cnn5-c5ccc(F)nc5)C[C@]4(C)[C@H]3[C@@H](O)C[C@@]21C` [Example 16, (1R,3aS,3bS,10aR,11S,12aS)-1-{[(fluoromethyl)sulfanyl]carbonyl}-7-(6-fluoropyridin-3-yl)-11-hydroxy-5,10a,12a-trimethyl-1,2,3,3a,3b,7,10,10a,10b,11,12,12a-dodecahydrocyclopenta[5,6]naphtho [1,2-f]indazol-1-yl methoxyacetate], the IC50 worked out at 1.5 nM.

In the case of `CCC(=O)O[C@]1(C(=O)SCC#N)[C@H](C)C[C@H]2[C@@H]3C=C(C)C4=Cc5c(cnn5-c5ccccc5)C[C@]4(C)[C@H]3[C@@H](O)C[C@@]21C` [Example 17, (1R,2R,3aS,3bS,10aR,10bS,11S,12aS)-1-{[(cyanomethyl)sulfanyl]carbonyl}-11-hydroxy-2,5,10a,12a-tetramethyl-7-phenyl-1,2,3,3a,3b,7,10,10a,- 10b,11,12,12a-dodecahydro-cyclopenta[5,6]naphtho[1,2-f]indazol-1-yl propanoate], the IC50 is 4.8 nM.

On to `CC1=C[C@@H]2[C@H]([C@@H](O)C[C@@]3(C)[C@H]2C[C@@H](C)[C@]3(OC(=O)c2ccco2)C(=O)SCC#N)[C@@]2(C)Cc3cnn(-c4ccccc4)c3C=C12` [Example 18, (1R,2R,3aS,3bS,10aR,10bS,11S,12aS)-1-{[(cyanomethyl)sulfanyl]carbonyl}-11-hydroxy-2,5,10a,12a-tetramethyl-7-phenyl-1,2,3,3a,3b,7,10,10a,- 10b,11,12,12a-dodecahydro-cyclopenta[5,6]naphtho[1,2-f]indazol-1-yl furan-2-carboxylate], for which the IC50 amounted to 12 nM.

In general, IC50 refers to the concentration needed to halve the response being measured.
